Source: patent US11819476B2, “Rapamycin analogs and uses thereof” (Janssen Pharmaceutica NV, priority 2019, dated 2023)

Tested on: pS6K1 in MCF7
Test: AlphaLISA Ultra pS6K1 Assay
Format: cell-based
Settings: Homo sapiens, 1.5 h; MCF7 cells, 90 min incubation
Protocol: Example 74: AlphaLISA Ultra pS6K1 Assay
Assay Protocol: • 1. Seed MCF-7 cells in Corning 3701 plate and incubate for 20˜24 hour. 12,000˜16,000 cells will be seeded in 36 μL medium per well. • 2. Change the culture medium with fresh medium and incubate for another 2 hours. • 3. Add 12 μL (4×) compounds into the cell plate by HAMILTON. Final DMSO concentration is 0.5%. Incubate for 90 minutes. • 4. Aspirate 38 μL by HAMILTON, 10 μL rest per well. • 5. Add 10 μL 2× lysis buffer using HAMILTON; total volume in wells is 20 μL. Allow cells to shake for 30 min. Cover plate by plastic foil and store plate at −80° C. up to analysis. • 6. Thaw cell lysate at RT and transfer 10 μL lysate to assay plate (Optiplate-384). • 7. Add 5 μL acceptor beads into assay plate and incubation for 2 hours • 8. Add 5 μL donor beads and incubation for 2 hours • 9. Count the plate by EnSpire Multimode Plate Reader

Structure (SMILES)	IC50 [nM]
CO[C@@H]1C[C@H](C[C@@H](C)[C@@H]2CC(=O)[C@H](C)/C=C(\C)[C@@H](O)[C@@H](OC)C(=O)[C@H](C)C[C@H](C)/C=C/C=C/C=C(\C)C(OCCOc3ccccc3)C[C@@H]3CC[C@@H](C)[C@@](O)(O3)C(=O)C(=O)N3CCCC[C@H]3C(=O)O2)CC[C@H]1OCCO (stereo partly drawn) [Example I-12, (26E,28E,30E,31E,38R,39S,40R,41R,43S,45S,48S,49R,50R,59R)-49,59-dihydroxy-48-[(1R)-2-[(1S,3R,4R)-4-(2-hydroxyethoxy)-3-methoxy-cyclohexyl]-1-methyl-ethyl]-50-methoxy-38,39,40,41,51,52-hexamethyl-47-(2-phenoxyethoxy)-69,70-dioxa-60-azatricyclohexatriaconta-26,28,30(51),31(52)-tetraene-53,54,55,56,57-pentone]	0.1 to 1
CO[C@@H]1C[C@H](C[C@@H](C)[C@@H]2CC(=O)[C@H](C)/C=C(\C)[C@@H](O)[C@@H](OC)C(=O)[C@H](C)C[C@H](C)/C=C/C=C/C=C(\C)C(OCCOC3CCOCC3)C[C@@H]3CC[C@@H](C)[C@@](O)(O3)C(=O)C(=O)N3CCCC[C@H]3C(=O)O2)CC[C@H]1OCCO (stereo partly drawn) [Example I-13, (25E,27E,29E,30E,36R,37S,38R,39R,42S,44S,47S,48R,49R,58R)-48,58-dihydroxy-47-[(1R)-2-[(1S,3R,4R)-4-(2-hydroxyethoxy)-3-methoxy-cyclohexyl]-1-methyl-ethyl]-49-methoxy-36,37,38,39,50,51-hexamethyl-46-(2-tetrahydropyran-4-yloxyethoxy)-69,70-dioxa-59-azatricyclohexatriaconta-25,27,29(50),30(51)-tetraene-52,53,54,55,56-pentone]	1 to 10
CO[C@@H]1C[C@H](C[C@@H](C)[C@@H]2CC(=O)[C@H](C)/C=C(\C)[C@@H](O)[C@@H](OC)C(=O)[C@H](C)C[C@H](C)/C=C/C=C/C=C(\C)C(OCCOC3COC3)C[C@@H]3CC[C@@H](C)[C@@](O)(O3)C(=O)C(=O)N3CCCC[C@H]3C(=O)O2)CC[C@H]1OCCO (stereo partly drawn) [Example I-14, (23E,25E,27E,28E,34R,35S,36R,37R,39S,41S,44S,46R,47R,56R)-46,56-dihydroxy-44-[(1R)-2-[(1S,3R,4R)-4-(2-hydroxyethoxy)-3-methoxy-cyclohexyl]-1-methyl-ethyl]-47-methoxy-34,35,36,37,48,49-hexamethyl-43-[2-(oxetan-3-yloxy)ethoxy]-67,68-dioxa-57-azatricyclohexatriaconta-23,25,27(48),28(49)-tetraene-50,51,52,53,54-pentone]	0.1 to 1
COCCOc1ccc(C2C[C@@H]3CC[C@@H](C)[C@@](O)(O3)C(=O)C(=O)N3CCCC[C@H]3C(=O)O[C@H]([C@H](C)C[C@@H]3CC[C@@H](O)[C@H](OC)C3)CC(=O)[C@H](C)/C=C(\C)[C@H](O)[C@@H](OC)C(=O)[C@H](C)C[C@H](C)/C=C/C=C/C=C/2C)c(OC)c1 (stereo partly drawn) [Example I-24, (26E,28E,30E,31E,38R,39S,40R,41R,43S,45S,48S,49S,50R,59R)-49,59-dihydroxy-48-[(1R)-2-[(1S,3R,4R)-4-hydroxy-3-methoxy-cyclohexyl]-1-methyl-ethyl]-50-methoxy-46-[2-methoxy-4-(2-methoxyethoxy)phenyl]-38,39,40,41,51,52-hexamethyl-69,70-dioxa-60-azatricyclohexatriaconta-26,28,30(51),31(52)-tetraene-53,54,55,56,57-pentone]	1 to 10
COCCSC1C[C@@H]2CC[C@@H](C)[C@@](O)(O2)C(=O)C(=O)N2CCCC[C@H]2C(=O)O[C@H]([C@H](C)C[C@@H]2CC[C@@H](O)[C@H](OC)C2)CC(=O)[C@H](C)/C=C(\C)[C@@H](O)[C@@H](OC)C(=O)[C@H](C)C[C@H](C)/C=C/C=C/C=C/1C (stereo partly drawn) [Example I-31, (22E,24E,26E,27E,33R,34S,35R,36R,38S,40S,43S,44S,45R,54R)-44,54-dihydroxy-43-[(1R)-2-[(1S,3R,4R)-4-hydroxy-3-methoxy-cyclohexyl]-1-methyl-ethyl]-45-methoxy-42-[2-(2-methoxyethoxy)ethylsulfanyl]-33,34,35,36,46,47-hexamethyl-64,65-dioxa-55-azatricyclohexatriaconta-22,24,26(46),27(47)-tetraene-48,49,50,51,52-pentone]	1 to 10
CO[C@@H]1C[C@H](C[C@@H](C)[C@@H]2CC(=O)[C@H](C)/C=C(\C)[C@@H](O)[C@@H](OC)C(=O)[C@H](C)C[C@H](C)/C=C/C=C/C=C(\C)C(NC(=O)OCCOCCO)C[C@@H]3CC[C@@H](C)[C@@](O)(O3)C(=O)C(=O)N3CCCC[C@H]3C(=O)O2)CC[C@H]1O (stereo partly drawn) [Example I-32, 2-(2-hydroxyethoxy)ethyl N-[(21E,23E,25E,26E,32R,33S,34R,35R,37S,39S,42S,43R,44R,54R)-43,54-dihydroxy-42-[(1R)-2-[(1S,3R,4R)-4-hydroxy-3-methoxy-cyclohexyl]-1-methyl-ethyl]-44-methoxy-32,33,34,35,45,46-hexamethyl-47,48,49,50,51-pentaoxo-67,68-dioxa-56-azatricyclohexatriaconta-21,23,25(45),26(46)-tetraen-41-yl]carbamate]	1 to 10
CO[C@@H]1C[C@H](C[C@@H](C)[C@@H]2CC(=O)[C@H](C)/C=C(\C)[C@@H](O)[C@@H](OC)C(=O)[C@H](C)C[C@H](C)/C=C/C=C/C=C(\C)C(OCCCCCO)C[C@@H]3CC[C@@H](C)[C@@](O)(O3)C(=O)C(=O)N3CCCC[C@H]3C(=O)O2)CC[C@H]1O (stereo partly drawn) [Example I-34, (21E,23E,25E,26E,33R,34S,35R,36R,38S,40S,43S,44R,45R,54R)-44,54-dihydroxy-43-[(1R)-2-[(1S,3R,4R)-4-hydroxy-3-methoxy-cyclohexyl]-1-methyl-ethyl]-42-(5-hydroxypentoxy)-45-methoxy-33,34,35,36,46,47-hexamethyl-65,66-dioxa-55-azatricyclohexatriaconta-21,23,25(46),26(47)-tetraene-48,49,50,51,52-pentone]	0.1 to 1

Other lines, results leading:

IC50 [nM]	Structure (SMILES)
0.1 to 1	COCCS(=O)(=O)CCOC1C[C@@H]2CC[C@@H](C)[C@@](O)(O2)C(=O)C(=O)N2CCCC[C@H]2C(=O)O[C@H]([C@H](C)C[C@@H]2CC[C@@H](OCCO)[C@H](OC)C2)CC(=O)[C@H](C)/C=C(\C)[C@@H](O)[C@@H](OC)C(=O)[C@H](C)C[C@H](C)/C=C/C=C/C=C/1C (stereo partly drawn) [Example I-25, (22E,24E,26E,27E,35R,36S,37R,38R,40S,42S,45S,46R,47R,56R)-46,56-dihydroxy-45-[(1R)-2-[(1S,3R,4R)-4-(2-hydroxyethoxy)-3-methoxy-cyclohexyl]-1-methyl-ethyl]-47-methoxy-44-[2-(2-methoxyethylsulfonyl)ethoxy]-35,36,37,38,48,49-hexamethyl-68,69-dioxa-57-azatricyclohexatriaconta-22,24,26(48),27(49)-tetraene-50,51,52,53,54-pentone]
0.1 to 1	COCCS(=O)(=O)CCOC1C[C@@H]2CC[C@@H](C)[C@@](O)(O2)C(=O)C(=O)N2CCCC[C@H]2C(=O)O[C@H]([C@H](C)C[C@@H]2CC[C@@H](O)[C@H](OC)C2)CC(=O)[C@H](C)/C=C(\C)[C@@H](O)[C@@H](OC)C(=O)[C@H](C)C[C@H](C)/C=C/C=C/C=C/1C (stereo partly drawn) [Example I-26, (22E,24E,26E,27E,33R,34S,35R,36R,38S,40S,43S,44R,45R,54R)-44,54-dihydroxy-43-[(1R)-2-[(1S,3R,4R)-4-hydroxy-3-methoxy-cyclohexyl]-1-methyl-ethyl]-45-methoxy-42-[2-(2-methoxyethylsulfonyl)ethoxy]-33,34,35,36,46,47-hexamethyl-66,67-dioxa-55-azatricyclohexatriaconta-22,24,26(46),27(47)-tetraene-48,49,50,51,52-pentone]
10 to 100	CO[C@@H]1C[C@H](C[C@@H](C)[C@@H]2CC(=O)[C@H](C)/C=C(\C)[C@@H](O)[C@@H](OC)C(=O)[C@H](C)C[C@H](C)/C=C/C=C/C=C(\C)[C@H](OCCCC(N)=O)C[C@@H]3CC[C@@H](C)[C@@](O)(O3)C(=O)C(=O)N3CCCC[C@H]3C(=O)O2)CC[C@H]1OCCO [Example I-28, 4-[[(21E,23E,25E,26E,33R,34S,35R,36R,38S,40S,42R,43S,44R,45R,55R)-44,55-dihydroxy-43-[(1R)-2-[(1S,3R,4R)-4-(2-hydroxyethoxy)-3-methoxy-cyclohexyl]-1-methyl-ethyl]-45-methoxy-33,34,35,36,46,47-hexamethyl-48,49,50,51,52-pentaoxo-67,68-dioxa-57-azatricyclohexatriaconta-21,23,25(46),26(47)-tetraen-42-yl]oxy]butanamide]
≥ 100	CO[C@@H]1C[C@H](C[C@@H](C)[C@@H]2CC(=O)[C@H](C)/C=C(\C)[C@@H](O)[C@@H](OC)C(=O)[C@H](C)C[C@H](C)/C=C/C=C/C=C(\C)C(OCCCC(=O)O)C[C@@H]3CC[C@@H](C)[C@@](O)(O3)C(=O)C(=O)N3CCCC[C@H]3C(=O)O2)CC[C@H]1OCCO (stereo partly drawn) [Example I-30, 4-[[(21E,23E,25E,26E,33R,34S,35R,36R,38S,40S,43S,44R,45R,55R)-44,55-dihydroxy-43-[(1R)-2-[(1S,3R,4R)-4-(2-hydroxyethoxy)-3-methoxy-cyclohexyl]-1-methyl-ethyl]-45-methoxy-33,34,35,36,46,47-hexamethyl-48,49,50,51,52-pentaoxo-67,68-dioxa-56-azatricyclohexatriaconta-21,23,25(46),26(47)-tetraen-42-yl]oxy]butanoic acid]
